Earlier results as cited in patent US20240041944A1, “OPTIMIZED INDIVIDUALIZED PREBIOTIC COMPOSITIONS” (ISOThrive LLC, priority 2016, published 2024).
Entries after “also recorded” stand apart in the source; their conditions may differ. Ends that are not written are not given here.

B1: Pyocin S2: class III bacteriocin produced by P. aeruginosa 42A (protein, UniProt Q06584 2-689, looked up)
Pyocin-S2: AVNDYEPGSMVITHVQGGGRDIIQYIPARSSYGTPPFVPPGPSPYVGTGMQEYRKLRSTLDKSHSELKKNLKNETLKEVDELKSEAGLPGKAVSANDIRDEKSIVDALMDAKAKSLKAIEDRPANLYTASDFPQKSESMYQSQLLASRKFYGEFLDRHMSELAKAYSADIYKAQIAILKQTSQELENKARSLEAEAQRAAAEVEADYKARKANVEKKVQSELDQAGNALPQLTNPTPEQWLERATQLVTQAIANKKKLQTANNALIAKAPNALEKQKATYNADLLVDEIASLQARLDKLNAETARRKEIARQAAIRAANTYAMPANGSVVATAAGRGLIQVAQGAASLAQAISDAIAVLGRVLASAPSVMAVGFASLTYSSRTAEQWQDQTPDSVRYALGMDAAKLGLPPSVNLNAVAKASGTVDLPMRLTNEARGNTTTLSVVSTDGVSVPKAVPVRMAAYNATTGLYEVTVPSTTAEAPPLILTWTPASPPGNQNPSSTTPVVPKPVPVYEGATLTPVKATPETYPGVITLPEDLIIGFPADSGIKPIYVMFRDPRDVPGAATGKGQPVSGNWLGAASQGEGAPIPSQIADKLRGKTFKNWRDFREQFWIAVANDPELSKQFNPGSLAVMRDGGAPYVRESEQAGGRIKIEIHHKVRIADGGGVYNMGNLVAVTPKRHIEIHKGGK
B2: Colicin E1: class III bacteriocin produced by E. coli (protein, UniProt P02978 1-522, looked up)
Colicin-E1: METAVAYYKDGVPYDDKGQVIITLLNGTPDGSGSGGGGGKGGSKSESSAAIHATAKWSTAQLKKTQAEQAARAKAAAEAQAKAKANRDALTQRLKDIVNEALRHNASRTPSATELAHANNAAMQAEDERLRLAKAEEKARKEAEAAEKAFQEAEQRRKEIEREKAETERQLKLAEAEEKRLAALSEEAKAVEIAQKKLSAAQSEVVKMDGEIKTLNSRLSSSIHARDAEMKTLAGKRNELAQASAKYKELDELVKKLSPRANDPLQNRPFFEATRRRVGAGKIREEKQKQVTASETRINRINADITQIQKAISQVSNNRNAGIARVHEAEENLKKAQNNLLNSQIKDAVDATVSFYQTLTEKYGEKYSKMAQELADKSKGKKIGNVNEALAAFEKYKDVLNKKFSKADRDAIFNALASVKYDDWAKHLDQFAKYLKITGHVSFGYDVVSDILKIKDTGDWKPLFLTLEKKAADAGVSYVVALLFSLLAGTTLGIWGIAIVTGILCSYIDKNKLNTINEVLGI
B3: Colicin E3: class III bacteriocin produced by E. coli (protein, UniProt P00646 1-551, looked up)
Colicin E3: MSGGDGRGHNTGAHSTSGNINGGPTGLGVGGGASDGSGWSSENNPWGGGSGSGIHWGGGSGHGNGGGNGNSGGGSGTGGNLSAVAAPVAFGFPALSTPGAGGLAVSISAGALSAAIADIMAALKGPFKFGLWGVALYGVLPSQIAKDDPNMMSKIVTSLPADDITESPVSSLPLDKATVNVNVRVVDDVKDERQNISVVSGVPMSVPVVDAKPTERPGVFTASIPGAPVLNISVNNSTPAVQTLSPGVTNNTDKDVRPAGFTQGGNTRDAVIRFPKDSGHNAVYVSVSDVLSPDQVKQRQDEENRRQQEWDATHPVEAAERNYERARAELNQANEDVARNQERQAKAVQVYNSRKSELDAANKTLADAIAEIKQFNRFAHDPMAGGHRMWQMAGLKAQRAQTDVNNKQAAFDAAAKEKSDADAALSSAMESRKKKEDKKRSAENNLNDEKNKPRKGFKDYGHDYHPAPKTENIKGLGDLKPGIPKTPKQNGGGKRKRWTGDKGRKIYEWDSQHGELEGYRASDGQHLGSFDPKTGNQLKGPDPKRNIKKYL
B4: Microcin E492: class IIa bacteriocin produced by K. pneumoniae (protein, UniProt Q9Z4N4 16-99, looked up)
Microcin E492: GETDPNTQLLNDLGNNMAWGAALGAPGGLGSAALGAAGGALQTVGQGLIDHGPVNVPIPVLIGPSWNGSGSGYNSATSSSGSGS

Experiments:
[1] = system: Caenorhabditis elegans; settings: incubation with rifamycin
[2] = system: ascites tumors
[3] = system: cancer cell lines
[4] = system: head/neck tumors; settings: head and neck, mice
[5] = system: Salmonella spp.; settings: co-administered with EDTA
[6] = system: Bacillus, Clostridium, Staphylococcus, Streptococcus, and Listeria spp.
[7] = can be autoclaved at 115° C.

Molecule | Cancer Cell Type affected [3] | further results
CO[C@H]1/C=C/O[C@@]2(C)Oc3c(C)c(O)c4c(O)c(cc(O)c4c3C2=O)NC(=O)/C(C)=C\C=C\[C@H](C)[C@H](O)[C@@H](C)[C@@H](O)[C@@H](C)[C@H](OC(C)=O)[C@@H]1C [rifamycin] |  | increase of lifespan [1]: up to 60%; cytotoxicity [2]: cytotoxic
Bovicin HC5 | MCF7 (breast cancer),; also recorded: HepG2 (liver cancer) | 
Nisin: lantibiotic bacteriocin produced by Lactococcus lactis, 34-residue peptide (SEQ ID NO:2) (ITSISLCTPGCKTGALMGCNMKTATCNCSIHVSK; cysteine pairing not given here; also: lanthionine modifications; listed as Lactococcus lactis) | MCF7 (breast cancer),; also recorded: HepG2 (liver cancer) | effect on tumorigenesis / tumors [4]: reduce tumorigenesis; activity against gram negative organisms [5]: effective; antimicrobial activity [6]: active; thermal stability [7]: thermally stable
B1 | HepG2 (liver cancer) and Im9 | 
B2 | MCF7 (breast cancer),; also recorded: HS913T (fibrosarcoma) | 
B3 | P388 (lymphoma) and HeLa | 
B4 | HeLa (cervical cancer),; also recorded: Jurkat (leukemia); also recorded: RJ2.25 | 
